This assay concerns MV-4-11 cells. In words: Gene expression microarray analysis (Affymetrix PrimeView) and GSEA. The conditions noted are these: ProbeSet 11748670_a_at; LIST B. The arrangement: RFU PODN (11730768_x_at) / Fold change /veh PODN (11730768_x_at) / RFU LINC00158 (11744669_a_at) / Fold change /veh LINC00158 (11744669_a_at) / RFU DUSP10 (11751237_a_at) / Fold change /veh DUSP10 (11751237_a_at) / RFU ID3 (11757404_x_at) / Fold change /veh ID3 (11757404_x_at) / RFU PLEKHG5 (11737974_s_at) / Fold change /veh PLEKHG5 (11737974_s_at) / RFU LRRC4B (11730491_at) / Fold change /veh LRRC4B (11730491_at) / RFU GIMAP4 (11747438_a_at) / Fold change /veh GIMAP4 (11747438_a_at) / RFU KRT8 (11758183_x_at) / Fold change /veh KRT8 (11758183_x_at) / RFU CNN1 (11734310_a_at) / Fold change /veh CNN1 (11734310_a_at) / RFU VPS37D (11726825_at) / Fold change /veh VPS37D (11726825_at) / RFU C10orf10 (11716522_x_at) / Fold change /veh C10orf10 (11716522_x_at) / RFU KIR2DL2 /// KIR2DL4 /// KIR2DL5A /// KIR2DL5B /// KIR2DS1 /// KIR2DS2 /// KIR2DS3 /// KIR2DS4 /// KIR3DL3 /// KIR3DL3 /// KIR3DS1 (11738374_at) / Fold change /veh KIR2DL2 /// KIR2DL4 /// KIR2DL5A /// KIR2DL5B /// KIR2DS1 /// KIR2DS2 /// KIR2DS3 /// KIR2DS4 /// KIR3DL3 /// KIR3DL3 /// KIR3DS1 (11738374_at) / RFU C1QL1 (11718748_at) / Fold change /veh C1QL1 (11718748_at) / RFU TMPRSS4 (11747572_a_at) / Fold change /veh TMPRSS4 (11747572_a_at) / RFU HAMP (11756126_x_at) / Fold change /veh HAMP (11756126_x_at) / RFU RNFT2 (11725882_a_at) / Fold change /veh RNFT2 (11725882_a_at) / RFU NR4A2 (11747474_a_at) / Fold change /veh NR4A2 (11747474_a_at) / RFU ABCC12 (11746883_a_at) / Fold change /veh ABCC12 (11746883_a_at) / RFU TMEM136 (11760407_x_at) / Fold change /veh TMEM136 (11760407_x_at) / RFU CLDN22 /// WWC2 (11732394_at) / Fold change /veh CLDN22 /// WWC2 (11732394_at) / RFU HLA-DPB1 (11760878_x_at) / Fold change /veh HLA-DPB1 (11760878_x_at) / RFU SPINT1 (11716480_a_at) / Fold change /veh SPINT1 (11716480_a_at) / RFU GAP43 (11754022_s_at) / Fold change /veh GAP43 (11754022_s_at) / RFU A4GNT (11735810_at) / Fold change /veh A4GNT (11735810_at) / RFU PRB3 (11715151_x_at) / Fold change /veh PRB3 (11715151_x_at) / RFU TUBB4B (11761932_at) / Fold change /veh TUBB4B (11761932_at) / RFU CAPN14 (11732068_a_at) / Fold change /veh CAPN14 (11732068_a_at) / RFU TMCC2 (11721928_a_at) / Fold change /veh TMCC2 (11721928_a_at) / RFU IRGQ (11745062_a_at) / Fold change /veh IRGQ (11745062_a_at) / RFU FAM174B (11720279_a_at) / Fold change /veh FAM174B (11720279_a_at) / RFU TMPRSS4 (11748680_a_at) / Fold change /veh TMPRSS4 (11748680_a_at) / RFU FAM212B (11763350_a_at) / Fold change /veh FAM212B (11763350_a_at) / RFU PLEKHG5 (11743358_a_at) / Fold change /veh PLEKHG5 (11743358_a_at) / RFU ZSCAN30 (11745921_a_at) / Fold change /veh ZSCAN30 (11745921_a_at) / RFU CMKLR1 (11741424_a_at) / Fold change /veh CMKLR1 (11741424_a_at) / RFU LOC101060620 /// MAPK8IP1 (11723275_at) / Fold change /veh LOC101060620 /// MAPK8IP1 (11723275_at) / RFU SPTSSB (11747773_x_at) / Fold change /veh SPTSSB (11747773_x_at) / RFU PRSS12 (11739890_at) / Fold change /veh PRSS12 (11739890_at) / RFU BIN1 (11741810_x_at) / Fold change /veh BIN1 (11741810_x_at) / RFU WNT11 (11732464_a_at) / Fold change /veh WNT11 (11732464_a_at) / RFU C10orf10 (11716521_a_at) / Fold change /veh C10orf10 (11716521_a_at) / RFU C5orf56 (11738089_at) / Fold change /veh C5orf56 (11738089_at) / RFU CYB561 (11721691_x_at) / Fold change /veh CYB561 (11721691_x_at) / RFU ANKRD19P (11752326_a_at) / Fold change /veh ANKRD19P (11752326_a_at) / RFU OR2T12 /// OR2T33 /// OR2T8 (11738714_s_at) / Fold change /veh OR2T12 /// OR2T33 /// OR2T8 (11738714_s_at) / RFU VCAN (11748164_a_at) / Fold change /veh VCAN (11748164_a_at) / RFU JSRP1 (11732532_at) / Fold change /veh JSRP1 (11732532_at) / RFU KRTAP10-11 (11738290_x_at) / Fold change /veh KRTAP10-11 (11738290_x_at) / RFU MYO3A (11730013_a_at) / Fold change /veh MYO3A (11730013_a_at) / RFU EBF3 (11725865_a_at) / Fold change /veh EBF3 (11725865_a_at) / RFU CAMK2N1 (11719241_x_at) / Fold change /veh CAMK2N1 (11719241_x_at) / RFU C5orf56 (11738088_a_at) / Fold change /veh C5orf56 (11738088_a_at) / RFU OLFML3 (11715873_a_at) / Fold change /veh OLFML3 (11715873_a_at) / RFU LOC100653217 /// NTM (11731650_a_at) / Fold change /veh LOC100653217 /// NTM (11731650_a_at) / RFU MAPK11 (11762145_a_at) / Fold change /veh MAPK11 (11762145_a_at) / RFU FIZ1 (11724087_x_at) / Fold change /veh FIZ1 (11724087_x_at) / RFU OASL (11726364_x_at) / Fold change /veh OASL (11726364_x_at) / RFU SOX15 (11748057_x_at) / Fold change /veh SOX15 (11748057_x_at) / RFU CD79A (11719716_a_at) / Fold change /veh CD79A (11719716_a_at) / RFU HIST1H1D (11736915_at) / Fold change /veh HIST1H1D (11736915_at) / RFU CASKIN2 (11723855_a_at) / Fold change /veh CASKIN2 (11723855_a_at) / RFU LOC730098 (11760151_x_at) / Fold change /veh LOC730098 (11760151_x_at) / RFU OR4N2 (11742367_at) / Fold change /veh OR4N2 (11742367_at) / RFU PRRT2 (11749266_a_at) / Fold change /veh PRRT2 (11749266_a_at) / RFU SNX32 (11753110_a_at) / Fold change /veh SNX32 (11753110_a_at) / RFU CDHR5 (11726645_a_at) / Fold change /veh CDHR5 (11726645_a_at) / RFU RCAN1 (11760418_a_at) / Fold change /veh RCAN1 (11760418_a_at) / RFU FAM167A (11723789_a_at) / Fold change /veh FAM167A (11723789_a_at) / RFU FAM26E (11764081_at) / Fold change /veh FAM26E (11764081_at) / RFU ISYNA1 (11749810_s_at) / Fold change /veh ISYNA1 (11749810_s_at) / RFU ACY1 (11761880_at) / Fold change /veh ACY1 (11761880_at) / RFU 11764098_at / Fold change /veh 11764098_at / RFU SAMD14 (11745864_x_at) / Fold change /veh SAMD14 (11745864_x_at) / RFU NPB (11741838_a_at) / Fold change /veh NPB (11741838_a_at) / RFU TMPRSS6 (11731388_a_at) / Fold change /veh TMPRSS6 (11731388_a_at) / RFU KRTAP10-2 (11738614_at) / Fold change /veh KRTAP10-2 (11738614_at) / RFU ARHGAP8 /// PRR5-ARHGAP8 (11727945_x_at) / Fold change /veh ARHGAP8 /// PRR5-ARHGAP8 (11727945_x_at) / RFU KRTAP5-7 /// NADSYN1 (11734609_at) / Fold change /veh KRTAP5-7 /// NADSYN1 (11734609_at) / RFU RASL12 (11751679_a_at) / Fold change /veh RASL12 (11751679_a_at) / RFU CDKN2B (11736163_a_at) / Fold change /veh CDKN2B (11736163_a_at) / RFU PRF1 (11729649_at) / Fold change /veh PRF1 (11729649_at) / RFU, ZNF638 /// ZNF638-IT1 / Fold change vs veh, ZNF638 /// ZNF638-IT1 / RFU, PANK3 / Fold change vs veh, PANK3 / RFU, SH3YL1 / Fold change vs veh, SH3YL1 / RFU, ZEB2 / Fold change vs veh, ZEB2 / RFU, NRIP1 / Fold change vs veh, NRIP1 / RFU, PTTG1IP / Fold change vs veh, PTTG1IP / RFU, CAPN2 / Fold change vs veh, CAPN2 / RFU, MED14 / Fold change vs veh, MED14 / RFU, SNORA58 / Fold change vs veh, SNORA58 / RFU, C1orf63 / Fold change vs veh, C1orf63 / RFU, LRRFIP1 / Fold change vs veh, LRRFIP1 / RFU, NDUFAF7 / Fold change vs veh, NDUFAF7 / RFU, SLC12A2 / Fold change vs veh, SLC12A2 / RFU, IBTK / Fold change vs veh, IBTK / RFU, ESF1 / Fold change vs veh, ESF1 / Fold change vs veh, TMEM50B / RFU, TAOK1 / Fold change vs veh, TAOK1 / RFU, ACBD3 / Fold change vs veh, ACBD3 / RFU, TMA16 / Fold change vs veh, TMA16 / RFU, RWDD3 / Fold change vs veh, RWDD3 / RFU, BCAT1 / Fold change vs veh, BCAT1 / RFU, EDEM3 / Fold change vs veh, EDEM3 / RFU, TMEM33 / Fold change vs veh, TMEM33 / RFU, WDR75 / Fold change vs veh, WDR75 / RFU, AHCTF1 / Fold change vs veh, AHCTF1 / RFU, TFRC / Fold change vs veh, TFRC / RFU, ZDHHC17 / Fold change vs veh, ZDHHC17 / RFU, NOM1 / Fold change vs veh, NOM1 / RFU, ARL8B / Fold change vs veh, ARL8B / RFU, ZBTB11 / Fold change vs veh, ZBTB11 / RFU, TAMM41 / Fold change vs veh, TAMM41 / RFU, KIAA1704 /// LOC100996395 / Fold change vs veh, KIAA1704 /// LOC100996395 / RFU, ING1 / Fold change vs veh, ING1 / RFU, TRMT61B / Fold change vs veh, TRMT61B / RFU, FUBP3 / Fold change vs veh, FUBP3 / RFU, TP53 / Fold change vs veh, TP53 / RFU, TNKS2 / Fold change vs veh, TNKS2 / RFU, ZFP14 / Fold change vs veh, ZFP14 / RFU, ACTR2 / Fold change vs veh, ACTR2 / RFU, PPP3R1 / Fold change vs veh, PPP3R1 / RFU, PIK3R1 / Fold change vs veh, PIK3R1 / RFU, HNRNPA1 / Fold change vs veh, HNRNPA1 / RFU, RNF170 / Fold change vs veh, RNF170 / RFU, ZNF28 / Fold change vs veh, ZNF28 / RFU, RNGTT / Fold change vs veh, RNGTT / RFU, OGT / Fold change vs veh, OGT / RFU, BRD1 / Fold change vs veh, BRD1 / RFU, MARS / Fold change vs veh, MARS / RFU, ZNF655 / Fold change vs veh, ZNF655 / RFU, FAHD1 / Fold change vs veh, FAHD1 / RFU, BDP1 / Fold change vs veh, BDP1 / RFU, LRRCC1 / Fold change vs veh, LRRCC1 / RFU, ARID1A / Fold change vs veh, ARID1A / RFU, ZNF146 / Fold change vs veh, ZNF146 / RFU, ZNF330 / Fold change vs veh, ZNF330 / RFU, GPN3 / Fold change vs veh, GPN3 / RFU, C9orf123 / Fold change vs veh, C9orf123 / RFU, N4BP2L2 / Fold change vs veh, N4BP2L2 / RFU, ARFIP1 / Fold change vs veh, ARFIP1 / RFU, FAM179B / Fold change vs veh, FAM179B / RFU, BCL10 / Fold change vs veh, BCL10 / RFU, UHRF1BP1L / Fold change vs veh, UHRF1BP1L / RFU, BET1 / Fold change vs veh, BET1 / RFU, CNOT2 / Fold change vs veh, CNOT2 / RFU, ZNF268 / Fold change vs veh, ZNF268 / Fold change vs veh, ZNF507 / RFU, DGCR2 / Fold change vs veh, DGCR2 / RFU, WDSUB1 / Fold change vs veh, WDSUB1 / Fold change vs veh, HSP90B1 /// MIR3652 / RFU, ADSS / Fold change vs veh, ADSS / RFU, GK / Fold change vs veh, GK / RFU, ZNF148 / Fold change vs veh, ZNF148 / RFU, TAF9 / Fold change vs veh, TAF9 / RFU, SLC1A5 / Fold change vs veh, SLC1A5 / RFU, SLMO2 / Fold change vs veh, SLMO2 / RFU, ABCC4 / Fold change vs veh, ABCC4 / RFU, LOC101060439 /// RAP1B / Fold change vs veh, LOC101060439 /// RAP1B / RFU, RFX7 / Fold change vs veh, RFX7 / RFU, GTPBP10 / Fold change vs veh, GTPBP10 / RFU, CNEP1R1 / Fold change vs veh, CNEP1R1 / RFU, BIVM-ERCC5 /// ERCC5 / Fold change vs veh, BIVM-ERCC5 /// ERCC5 / RFU, ILF3 / Fold change vs veh, ILF3 / RFU 11762660_at / Fold change /veh 11762660_at / RFU VCAN (11757783_s_at) / Fold change /veh VCAN (11757783_s_at) / RFU DDX43 (11728927_at) / Fold change /veh DDX43 (11728927_at) / RFU KRT8 (11758188_x_at) / Fold change /veh KRT8 (11758188_x_at) / RFU NKD1 (11759106_at) / Fold change /veh NKD1 (11759106_at) / RFU SRD5A1 (11742802_a_at) / Fold change /veh SRD5A1 (11742802_a_at) / RFU TPSAB1 /// TPSB2 (11721975_s_at) / Fold change /veh TPSAB1 /// TPSB2 (11721975_s_at) / RFU GSTM3 (11746129_a_at) / Fold change /veh GSTM3 (11746129_a_at) / RFU IL23R (11737362_x_at) / Fold change /veh IL23R (11737362_x_at) / RFU TMEM51 (11727254_a_at) / Fold change /veh TMEM51 (11727254_a_at) / RFU PIWIL2 (11732686_x_at) / Fold change /veh PIWIL2 (11732686_x_at) / RFU ORM1 (11744905_x_at) / Fold change /veh ORM1 (11744905_x_at) / RFU CCDC152 (11743942_at) / Fold change /veh CCDC152 (11743942_at) / RFU ECM1 (11717891_a_at) / Fold change /veh ECM1 (11717891_a_at) / RFU IL23R (11748794_a_at) / Fold change /veh IL23R (11748794_a_at) / RFU TNFAIP8L3 (11732012_x_at) / Fold change /veh TNFAIP8L3 (11732012_x_at) / RFU MBOAT4 (11741988_at) / Fold change /veh MBOAT4 (11741988_at) / RFU 11764193_at / Fold change /veh 11764193_at / RFU TMEM53 (11763286_at) / Fold change /veh TMEM53 (11763286_at) / RFU MAGEB2 (11727129_at) / Fold change /veh MAGEB2 (11727129_at) / RFU TMEM200A (11744735_a_at) / Fold change /veh TMEM200A (11744735_a_at) / RFU CCDC152 (11751479_a_at) / Fold change /veh CCDC152 (11751479_a_at) / RFU FAM211A (11726209_a_at) / Fold change /veh FAM211A (11726209_a_at) / RFU RGS16 (11746705_a_at) / Fold change /veh RGS16 (11746705_a_at) / RFU VCAN (11755009_s_at) / Fold change /veh VCAN (11755009_s_at) / RFU RHOB (11743442_s_at) / Fold change /veh RHOB (11743442_s_at) / RFU RGS16 (11720943_a_at) / Fold change /veh RGS16 (11720943_a_at) / RFU RGS16 (11720944_at) / Fold change /veh RGS16 (11720944_at) / RFU, VPS4B / Fold change vs veh, VPS4B / RFU, CREB1 / Fold change vs veh, CREB1 / RFU, DNAJC13 / Fold change vs veh, DNAJC13 / RFU, GNAQ / Fold change vs veh, GNAQ / RFU, CDK5R1 / Fold change vs veh, CDK5R1 / RFU, ZRANB3 / Fold change vs veh, ZRANB3 / RFU, CUL4A / Fold change vs veh, CUL4A / RFU, CCNY / Fold change vs veh, CCNY / RFU, UFL1 / Fold change vs veh, UFL1 / RFU, COG3 / Fold change vs veh, COG3 / RFU, DIAPH2 / Fold change vs veh, DIAPH2 / RFU, SKA2 / Fold change vs veh, SKA2 / RFU, AFF3 / Fold change vs veh, AFF3 / RFU, LMF1 / Fold change vs veh, LMF1 / RFU, IPO11 / Fold change vs veh, IPO11 / RFU, DFFB / Fold change vs veh, DFFB / RFU, FOXP1 / Fold change vs veh, FOXP1 / RFU, CARD8 / Fold change vs veh, CARD8 / RFU, STRN3 / Fold change vs veh, STRN3 / RFU, ADK / Fold change vs veh, ADK / RFU, RASSF2 / Fold change vs veh, RASSF2 / RFU, WIPF1 / Fold change vs veh, WIPF1 / RFU, LARP1B / Fold change vs veh, LARP1B / RFU, RASA1 / Fold change vs veh, RASA1 / RFU, RB1 / Fold change vs veh, RB1 / RFU, PPFIA1 / Fold change vs veh, PPFIA1 / RFU, MAT2A / Fold change vs veh, MAT2A / RFU, CCT5 / Fold change vs veh, CCT5 / RFU, WDR92 / Fold change vs veh, WDR92 / RFU, CUX1 / Fold change vs veh, CUX1 / RFU, TTC7A / Fold change vs veh, TTC7A / RFU, TMEM135 / Fold change vs veh, TMEM135 / RFU, DEPTOR / Fold change vs veh, DEPTOR / RFU, CPM / Fold change vs veh, CPM / RFU, DNAJB6 / Fold change vs veh, DNAJB6 / RFU, CACNA2D3 / Fold change vs veh, CACNA2D3 / RFU, DTX4 / Fold change vs veh, DTX4 / RFU, TFCP2 / Fold change vs veh, TFCP2 / RFU, GMCL1 /// GMCL1P1 / Fold change vs veh, GMCL1 /// GMCL1P1 / RFU, AEBP2 / Fold change vs veh, AEBP2 / RFU, SNHG1 /// SNORD22 /// SNORD25 /// SNORD26 /// SNORD27 /// SNORD28 /// SNORD29 /// SNORD31 / Fold change vs veh, SNHG1 /// SNORD22 /// SNORD25 /// SNORD26 /// SNORD27 /// SNORD28 /// SNORD29 /// SNORD31 / Fold change (Aza/veh), C12orf56 (ProbeSet 11735607_a_at) / Fold change (ACY-1035/veh), C12orf56 (ProbeSet 11735607_a_at) / Fold change (Aza/veh), FGFR1OP (ProbeSet 11751329_s_at) / Fold change (ACY-1035/veh), FGFR1OP (ProbeSet 11751329_s_at) / Fold change (Aza/veh), VPS36 (ProbeSet 11739960_a_at) / Fold change (ACY-1035/veh), VPS36 (ProbeSet 11739960_a_at) / RFU SYPL1 (11715823_x_at) / Fold change /veh SYPL1 (11715823_x_at) / RFU IGFBP7 (11715501_s_at) / Fold change /veh IGFBP7 (11715501_s_at) / RFU REEP3 (11722064_at) / Fold change /veh REEP3 (11722064_at) / RFU IGLL1 (11728026_x_at) / Fold change /veh IGLL1 (11728026_x_at): dose or concentration left out as unconfirmed. The class given is cell-based, human.

The values below come from paper PMC5218480 (PLoS ONE, 2017).

Consider `Nc1ncn([C@@H]2O[C@H](CO)[C@@H](O)[C@H]2O)c(=O)n1` [azacitidine], for which the “Fold change vs veh, PIK3R1” value worked out at 1.03.
